The values that follow are results of earlier work, collected in US20250134883A1, “NOVEL COMPOSITIONS” (TULEX PHARMACEUTICALS INC., priority 2022, published 2025).

For this data set the following is noted: high dose naltrexone (0.5, 1.0 and 2.0 mg/kg).

Take `O=C1CC[C@@]2(O)[C@H]3Cc4ccc(O)c5c4[C@@]2(CCN3CC2CC2)[C@H]1O5` [naltrexone, Naltrexone]: the “effect on autistic behavior and gaze aversion” value is “reverse autistic behavior and gaze aversion”.
